In patent US20230257372A1 (CHONG KUN DANG PHARMACEUTICAL CORP., priority 2020, published 2023):

Experiments:
[1] = molecular target: T1, human recombinant HDAC6 (Homo sapiens, UniProt Q9UBN7); experiment: HDAC6 enzyme activity inhibition (HDAC Fluorimetric Drug Discovery Kit); assay type: biochemical; conditions: for HDAC6 selectivity (fold): HDAC6 over HDAC1; for IC50: human recombinant HDAC6, same protocol as HDAC1
T1 construct: purchased Calbiochem Inc. 382180
T1 sequence (Q9UBN7 1-1215): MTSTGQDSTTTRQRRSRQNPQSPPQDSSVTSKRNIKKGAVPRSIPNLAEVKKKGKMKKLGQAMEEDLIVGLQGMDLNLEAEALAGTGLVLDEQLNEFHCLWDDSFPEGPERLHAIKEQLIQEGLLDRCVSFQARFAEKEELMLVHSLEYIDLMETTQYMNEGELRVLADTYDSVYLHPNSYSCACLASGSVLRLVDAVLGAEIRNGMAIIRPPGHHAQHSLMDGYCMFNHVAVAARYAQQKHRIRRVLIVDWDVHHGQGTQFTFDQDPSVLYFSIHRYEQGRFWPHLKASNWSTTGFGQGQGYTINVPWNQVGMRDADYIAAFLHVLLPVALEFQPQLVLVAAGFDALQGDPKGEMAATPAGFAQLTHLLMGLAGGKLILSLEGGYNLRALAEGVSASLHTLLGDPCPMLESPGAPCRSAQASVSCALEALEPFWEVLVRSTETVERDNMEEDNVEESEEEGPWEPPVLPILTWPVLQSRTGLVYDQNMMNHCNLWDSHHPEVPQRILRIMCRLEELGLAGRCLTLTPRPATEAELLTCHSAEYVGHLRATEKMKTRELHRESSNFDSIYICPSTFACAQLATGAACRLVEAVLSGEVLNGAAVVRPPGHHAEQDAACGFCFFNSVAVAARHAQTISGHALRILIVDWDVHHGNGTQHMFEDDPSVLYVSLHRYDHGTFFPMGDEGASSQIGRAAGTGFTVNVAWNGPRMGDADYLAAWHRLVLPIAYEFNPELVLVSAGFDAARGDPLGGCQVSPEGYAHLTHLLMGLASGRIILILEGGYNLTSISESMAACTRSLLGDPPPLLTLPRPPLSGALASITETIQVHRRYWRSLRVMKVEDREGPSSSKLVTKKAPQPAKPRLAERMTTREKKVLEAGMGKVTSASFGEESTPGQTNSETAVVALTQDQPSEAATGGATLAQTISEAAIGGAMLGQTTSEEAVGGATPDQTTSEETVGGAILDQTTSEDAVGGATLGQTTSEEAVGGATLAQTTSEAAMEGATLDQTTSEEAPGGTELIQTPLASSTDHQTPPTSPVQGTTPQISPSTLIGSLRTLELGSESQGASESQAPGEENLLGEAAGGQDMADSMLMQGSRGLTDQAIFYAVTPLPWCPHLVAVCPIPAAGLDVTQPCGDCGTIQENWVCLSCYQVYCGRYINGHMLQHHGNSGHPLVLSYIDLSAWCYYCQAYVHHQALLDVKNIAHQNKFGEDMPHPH
In short: (§1)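 Five-fold compound dilutions incubated with […] recombinant enzyme and 10 μM fluorogenic Fluor de Lys substrate, 60 min at 30° C. Fluor de Lys Developer II then added for 30 min to generate the fluorescent read-out.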

[2] = molecular target: T2, human recombinant HDAC1 (Homo sapiens, UniProt Q13547); experiment: HDAC1 enzyme activity inhibition (HDAC Fluorimetric Drug Discovery Kit); assay type: biochemical; conditions: human recombinant HDAC1, Fluor de Lys substrate, 30° C. 60 minutes; read-out: HDAC1
T2 construct: purchased Enzo Life Science, Inc. BML-SE456
T2 sequence (Q13547 whole entry): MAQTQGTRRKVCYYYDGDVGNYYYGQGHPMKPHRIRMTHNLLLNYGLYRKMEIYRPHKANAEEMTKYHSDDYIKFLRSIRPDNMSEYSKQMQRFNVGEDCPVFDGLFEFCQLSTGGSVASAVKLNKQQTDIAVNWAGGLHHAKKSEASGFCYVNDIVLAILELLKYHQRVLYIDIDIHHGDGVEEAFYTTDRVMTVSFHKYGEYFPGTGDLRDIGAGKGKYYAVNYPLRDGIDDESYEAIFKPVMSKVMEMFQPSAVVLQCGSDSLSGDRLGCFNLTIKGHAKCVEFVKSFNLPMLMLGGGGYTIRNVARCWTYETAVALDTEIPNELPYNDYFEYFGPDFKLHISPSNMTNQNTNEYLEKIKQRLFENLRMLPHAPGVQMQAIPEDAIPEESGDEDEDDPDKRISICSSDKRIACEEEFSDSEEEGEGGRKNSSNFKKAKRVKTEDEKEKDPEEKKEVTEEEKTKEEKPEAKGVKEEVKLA
In short: as §1

In the case of `Fc1cc(-c2nnc(C(F)F)o2)ccc1Cn1cc(-c2ccc3c(c2)CN(C2CCC2)C3)nn1` [Compound 4518, 2-(4-((4-(2-cyclobutylisoindolin-5-yl)-1H-1,2,3-triazol-1-yl)methyl)-3-fluorophenyl)-5-(difluoromethyl)-1,3,4-oxadiazole], the “HDAC6 selectivity (fold)” value [1] is reported as 986 fold, the IC50 [1] is reported as 50.7 nM and the IC50 [2] is reported as over 50000 nM.
In the case of `Fc1cc(-c2nnc(C(F)F)o2)ccc1Cn1cc(-c2ccc3c(c2)CN(C2COC2)C3)nn1` [Compound 4519, 2-(difluoromethyl)-5-(3-fluoro-4-((4-(2-(oxetan-3-yl)isoindolin-5-yl)-1H-1,2,3-triazol-1-yl)methyl)phenyl)-1,3,4-oxadiazole], the “HDAC6 selectivity (fold)” value [1] is reported as 994 fold, the IC50 [1] is reported as 50.3 nM and the IC50 [2] is reported as over 50000 nM.
In the case of `Fc1cc(-c2nnc(C(F)F)o2)ccc1Cn1cc(-c2ccc(CN3CCCC3)cc2)nn1` [Compound 4521, 2-(difluoromethyl)-5-(3-fluoro-4-((4-(4-(pyrrolidin-1-ylmethyl)phenyl)-1H-1,2,3-triazol-1-yl)methyl)phenyl)-1,3,4-oxadiazole], the “HDAC6 selectivity (fold)” value [1] is reported as 4464 fold, the IC50 [1] is reported as 11.2 nM and the IC50 [2] is reported as over 50000 nM.
In the case of `Fc1cc(-c2nnc(C(F)F)o2)ccc1Cn1cc(-c2ccc(CN3CC4(COC4)C3)cc2)nn1` [Compound 4523, 6-(4-(1-(4-(5-(difluoromethyl)-1,3,4-oxadiazol-2-yl)-2-fluorobenzyl)-1H-1,2,3-triazol-4-yl)benzyl)-2-oxa-6-azaspiro[3.3]heptane], the “HDAC6 selectivity (fold)” value [1] is reported as 4504 fold, the IC50 [1] is reported as 11.1 nM and the IC50 [2] is reported as over 50000 nM.
With `Fc1cc(-c2nnc(C(F)F)o2)ccc1Cn1cc(-c2cnc3[nH]ccc3c2)nn1` [Compound 4524, 2-(4-((4-(1H-pyrrolo[2,3-b]pyridin-5-yl)-1H-1,2,3-triazol-1-yl)methyl)-3-fluorophenyl)-5-(difluoromethyl)-1,3,4-oxadiazole] the “HDAC6 selectivity (fold)” value [1] was 6024 fold, the IC50 [1] was 8.3 nM and the IC50 [2] was over 50000 nM.
`FC(F)c1nnc(-c2ccc(Cn3cc(-c4cnc5[nH]ccc5c4)nn3)cc2)o1` [Compound 4525, 2-(4-((4-(1H-pyrrolo[2,3-b]pyridin-5-yl)-1H-1,2,3-triazol-1-yl)methyl)phenyl)-5-(difluoromethyl)-1,3,4-oxadiazole] was tested, and the “HDAC6 selectivity (fold)” value [1] was 5681 fold, the IC50 [1] was 8.8 nM and the IC50 [2] was over 50000 nM.
For `Fc1cc(-c2nnc(C(F)F)o2)ccc1Cn1cc(-c2ccnc3[nH]ccc23)nn1` [Compound 4526, 2-(4-((4-(1H-pyrrolo[2,3-b]pyridin-4-yl)-1H-1,2,3-triazol-1-yl)methyl)-3-fluorophenyl)-5-(difluoromethyl)-1,3,4-oxadiazole], the “HDAC6 selectivity (fold)” value [1] was 3846 fold, the IC50 [1] was 13 nM and the IC50 [2] was over 50000 nM.
With `FC(F)c1nnc(-c2ccc(Cn3cc(-c4ccnc5[nH]ccc45)nn3)cc2)o1` [Compound 4527, 2-(4-((4-(1H-pyrrolo[2,3-b]pyridin-4-yl)-1H-1,2,3-triazol-1-yl)methyl)phenyl)-5-(difluoromethyl)-1,3,4-oxadiazole] the “HDAC6 selectivity (fold)” value [1] was 4310 fold, the IC50 [1] was 11.6 nM and the IC50 [2] was over 50000 nM.
`CN1CC(c2cccc(-c3cn(Cc4ccc(-c5nnc(C(F)F)o5)cc4)nn3)c2)C1` [Compound 4528, 2-(difluoromethyl)-5-(4-((4-(3-(1-methylazetidin-3-yl)phenyl)-1H-1,2,3-triazol-1-yl)methyl)phenyl)-1,3,4-oxadiazole] was tested, and the “HDAC6 selectivity (fold)” value [1] was 371 fold, the IC50 [1] was 135 nM and the IC50 [2] was over 50000 nM.
With `CN1Cc2cccc(-c3cn(Cc4ccc(-c5nnc(C(F)F)o5)cc4)nn3)c2C1` [Compound 4529, 2-(difluoromethyl)-5-(4-((4-(2-methylisoindolin-4-yl)-1H-1,2,3-triazol-1-yl)methyl)phenyl)-1,3,4-oxadiazole] the “HDAC6 selectivity (fold)” value [1] was 313 fold, the IC50 [1] was 160 nM and the IC50 [2] was over 50000 nM.
`CCN1Cc2cccc(-c3cn(Cc4ccc(-c5nnc(C(F)F)o5)cc4)nn3)c2C1` [Compound 4530, 2-(difluoromethyl)-5-(4-((4-(2-ethylisoindolin-4-yl)-1H-1,2,3-triazol-1-yl)methyl)phenyl)-1,3,4-oxadiazole] was tested, and the “HDAC6 selectivity (fold)” value [1] was 449 fold, the IC50 [1] was 111 nM and the IC50 [2] was over 50000 nM.
For `CC(C)N1Cc2cccc(-c3cn(Cc4ccc(-c5nnc(C(F)F)o5)cc4)nn3)c2C1` [Compound 4531, 2-(difluoromethyl)-5-(4-((4-(2-isopropylisoindolin-4-yl)-1H-1,2,3-triazol-1-yl)methyl)phenyl)-1,3,4-oxadiazole], the “HDAC6 selectivity (fold)” value [1] was 412 fold, the IC50 [1] was 121 nM and the IC50 [2] was over 50000 nM.
`FC(F)c1nnc(-c2ccc(Cn3cc(-c4cccc5c4CN(C4CCC4)C5)nn3)cc2)o1` [Compound 4532, 2-(4-((4-(2-cyclobutylisoindolin-4-yl)-1H-1,2,3-triazol-1-yl)methyl)phenyl)-5-(difluoromethyl)-1,3,4-oxadiazole] was tested, and the “HDAC6 selectivity (fold)” value [1] was 327 fold, the IC50 [1] was 153 nM and the IC50 [2] was over 50000 nM.
For `FC(F)c1nnc(-c2ccc(Cn3cc(-c4cccc5c4CN(C4COC4)C5)nn3)cc2)o1` [Compound 4533, 2-(difluoromethyl)-5-(4-((4-(2-(oxetan-3-yl)isoindolin-4-yl)-1H-1,2,3-triazol-1-yl)methyl)phenyl)-1,3,4-oxadiazole], the “HDAC6 selectivity (fold)” value [1] was 318 fold, the IC50 [1] was 157 nM and the IC50 [2] was over 50000 nM.
For `CN1Cc2cccc(-c3cn(Cc4ccc(-c5nnc(C(F)F)o5)cc4F)nn3)c2C1` [Compound 4534, 2-(difluoromethyl)-5-(3-fluoro-4-((4-(2-methylisoindolin-4-yl)-1H-1,2,3-triazol-1-yl)methyl)phenyl)-1,3,4-oxadiazole], the “HDAC6 selectivity (fold)” value [1] was 529 fold, the IC50 [1] was 94.4 nM and the IC50 [2] was over 50000 nM.
With `CCN1Cc2cccc(-c3cn(Cc4ccc(-c5nnc(C(F)F)o5)cc4F)nn3)c2C1` [Compound 4535, 2-(difluoromethyl)-5-(4-((4-(2-ethylisoindolin-4-yl)-1H-1,2,3-triazol-1-yl)methyl)-3-fluorophenyl)-1,3,4-oxadiazole] the “HDAC6 selectivity (fold)” value [1] was 512 fold, the IC50 [1] was 97.5 nM and the IC50 [2] was over 50000 nM.
With `CC(C)N1Cc2cccc(-c3cn(Cc4ccc(-c5nnc(C(F)F)o5)cc4F)nn3)c2C1` [Compound 4536, 2-(difluoromethyl)-5-(3-fluoro-4-((4-(2-isopropylisoindolin-4-yl)-1H-1,2,3-triazol-1-yl)methyl)phenyl)-1,3,4-oxadiazole] the “HDAC6 selectivity (fold)” value [1] was 572 fold, the IC50 [1] was 87.4 nM and the IC50 [2] was over 50000 nM.
In the case of `Fc1cc(-c2nnc(C(F)F)o2)ccc1Cn1cc(-c2cccc3c2CN(C2CCC2)C3)nn1` [Compound 4537, 2-(4-((4-(2-cyclobutylisoindolin-4-yl)-1H-1,2,3-triazol-1-yl)methyl)-3-fluorophenyl)-5-(difluoromethyl)-1,3,4-oxadiazole], the “HDAC6 selectivity (fold)” value [1] is reported as 657 fold, the IC50 [1] is reported as 76 nM and the IC50 [2] is reported as over 50000 nM.
`Fc1cc(-c2nnc(C(F)F)o2)ccc1Cn1cc(-c2cccc3c2CN(C2COC2)C3)nn1` [Compound 4538, 2-(difluoromethyl)-5-(3-fluoro-4-((4-(2-(oxetan-3-yl)isoindolin-4-yl)-1H-1,2,3-triazol-1-yl)methyl)phenyl)-1,3,4-oxadiazole] was tested, and the “HDAC6 selectivity (fold)” value [1] was 539 fold, the IC50 [1] was 92.7 nM and the IC50 [2] was over 50000 nM.
`FC(F)c1nnc(-c2ccc(Cn3cc(-c4ccc5c(c4)CNC5)nn3)nc2)o1` [Compound 4539, 2-(difluoromethyl)-5-(6-((4-(isoindolin-5-yl)-1H-1,2,3-triazol-1-yl)methyl)pyridin-3-yl)-1,3,4-oxadiazole] was tested, and the “HDAC6 selectivity (fold)” value [1] was 776 fold, the IC50 [1] was 64.4 nM and the IC50 [2] was over 50000 nM.
In the case of `CN1Cc2ccc(-c3cn(Cc4ccc(-c5nnc(C(F)F)o5)cn4)nn3)cc2C1` [Compound 4540, 2-(difluoromethyl)-5-(6-((4-(2-methylisoindolin-5-yl)-1H-1,2,3-triazol-1-yl)methyl)pyridin-3-yl)-1,3,4-oxadiazole], the “HDAC6 selectivity (fold)” value [1] is reported as 583 fold, the IC50 [1] is reported as 85.7 nM and the IC50 [2] is reported as over 50000 nM.
